Experimental data: patent US12433875B2, “(R)-4-(1-(6-(4-(trifluoromethyl)benzyl)-6-azaspiro[2.5]octane-5-carboxamido)-cyclopropyl) benzoic acid or its salt also in polymorphic form a for use in the prevention of heterotopic ossification” (ROTTAPHARM BIOTECH S.R.L., priority 2019, dated 2025)
Entries after “also recorded” stand apart in the source; their conditions may differ.

Experiments:
[1] = test system: Male DBA/1 mice (CIA model); experiment: CIA in mice, histology of heterotopic bone formation; assay type: in vivo; settings: 30 mg/kg (lowest tested dose) once daily for 10 days, FIG. 9
Experimental: CIA in mice is another very popular translational model to mimic human arthritis. […] Male DBA/1 mice were immunized by intradermal injection at the base of the tail with an emulsion of 200 μg of bCII in CFA containing 3 mg/ml Mycobacterium tuberculosis. Non-immunized mice served as the negative control of disease. Animals were monitored by visual inspection for appearance of peripheral edema. […] Upon onset, animals were recruited and randomized. Recruitment was given a cut-off at day 40. Upon recruitment, arthritis clinical score was assigned, and edema was measured via caliper. Mice were randomized into the following groups: vehicle, 30 mg/kg the form A of the sodium salt of (R)-4-(1-(6-(4-(trifluoromethyl)benzyl)-6-azaspiro[2.5]octane-5-carboxamido)cyclopropyl)benzoic acid, 60 mg/kg the form A of the sodium salt of (R)-4-(1-(6-(4-(trifluoromethyl)benzyl)-6-azaspiro[2.5]octane-5-carboxamido)cyclopropyl)benzoic acid and 60 mg/kg naproxen. Animals received the test drugs once daily for 10 days. Histology was performed as described for rats.

[2] = test system: Male Lewis rats (CIA model, osteophyte formation); experiment: CIA model in rats, micro-CT study of bone structure; assay type: in vivo, rat
Experimental: Male Lewis rats were immunized and treated exactly as described in example 2.
Specifically, the animals were divided in four groups: controls, vehicle treated CIA rat, and two groups administered with a dose of 10 mg/kg and 30 mg/kg, respectively, of the compound of the invention.
After 14 days of treatment, bone samples corresponding to hind limbs (left and right) of arthritic rats or sham ones were sent for micro-CT analysis to Atlantic Bone Screen (ABS, 3 rue Aronnax, 44800 SAINT-HERBLAIN France). Bone samples were sent to ABS facilities after they have been removed from soft tissue and fixed in formalin solution within a maximum of 1 week.
40 samples were analyses blindly. Then, the unmask data were analyzed to compare the different groups:
Analyses of calcaneus and knee density and microarchitectural characteristics were performed using the high-resolution X-ray micro-CT. […] To quantitatively compare the four groups, the hind paw calcaneus, knee (proximal tibial and distal femoral epiphysis) and proximal tibial metaphysis were identified as the anatomical sites for micro-CT analysis. The bone mineral density (BMD), bone volume ratio (BV/TV), bone surface (BS) and bone surface-volume ratio (BS/BV) was calculated while including calcaneus, proximal tibial and distal femoral epiphysis (cortical bone, cancellous bone and potential osteophytes).

[3] = test system: Male Lewis rats (CIA model, heterotopic bone formation); experiment: Collagen Induce Arthritis (CIA) in rats, histological scores; assay type: in vivo, rat
Excerpt: Collagen Induce Arthritis (CIA) in rats is among the most common models used to mimic human arthritis and especially Rheumatoid Arthritis (RA). In general the joint response seen in this model is quite similar to that observed in human pathology, in terms of inflammation, bone erosion and cartilage damage. Nevertheless, this model differs from Rheumatoid Arthritis, since it is endowed with a consistent periosteal woven bone formation (immature bone) that is not a usual feature of human RA (maybe, less than 10% of patients have this type of bone reaction). On the contrary, this disordered apposition of new bone is the distinctive feature of heterotopic ossification. Therefore, this model was used to study the effect of the compound of the invention in Pathological heretopic osteogenesis.
Male Lewis rats were immunized by intradermal injection at the base of the tail with an emulsion containing 150 μg of bovine collagen type II (bCII) in complete Freund's adjuvant (CFA) or received an injection with incomplete Freund's adjuvant (sham group). Three weeks after the first immunisation, animals were boosted with the same procedure. Three days after booster injection, arthritis had developed in all animals but the sham group. The administration of the compound (1) Form A started at this time point and lasted for 14 days (once a day, unless otherwise indicated).
The paws were fixed in 10% neutral buffered formalin (Bio-Optica, Milan, Italy) and subsequently decalcified in EDTA for 4 weeks. Samples were dehydrated in an ethanol series and embedded in paraffin. At least three non-consecutive sections for each paw were blindly scored at the level of the tarsus, metatarsus and calcaneus for the following histological features of woven bone. Two independent pathologists performed histopathology on blinded slides. The data of right and left hind limbs were summed for each rat.
In FIG. 3 the dose-response curve for the compound of the invention is reported. the compound was administered once a day for 14 days on the site where the pathological bone formation was expected as induced in the CIA model in rats. The dose were 1 mg/Kg, 3 mg/kg and 10 mg/kg. The data were expressed as the median (boxed area), 95% interquartile range (whiskers), and individual data (symbols) of the histological scores for heterotopic bone formation (osteogenesis) given by two pathologists unaware of the treatment groups on a following scale: 0=absent; 1=mild/focal; 2=moderate/multifocal; 3=severe/multifocal to diffuse. Since arthritis was bilateral, the scores for each rat was the sum of the two leg scores. […] The compound reached the maximal activity at 10 mg/kg.
The data were expressed as the median histological scores for heterotopic bone formation (osteogenesis) as described for FIG. 3. […] As for osteogenesis, the data reported in this graph were the median (boxed area), 95% interquartile range (whiskers), and individual data (symbols) of the histological scores for synovial hyperplasia (oedema) given by two pathologists unaware of the treatment groups on a following scale: 0=normal: 1-2 layers of synovial lining cells, 1=mild: focal to multifocal 3-4 layers of synovial lining cells and/or mild proliferation of subsynovial tissue, 2=moderate: focal to mutlitfocal >4-6 layers of synovial lining cells and/or moderate proliferation of subsynovial tissue, 3=severe: multifocal to diffuse >6-8 layers of synovial lining cells and/or severe proliferation of subsynovial tissue. Since arthritis was bilateral, the scores for each rat is the sum of the two leg scores. This underline a preferential and surprising effect of (R)-4-(1-(6-(4-(trifluoromethyl)benzyl)-6-azaspiro[2.5]octane-5-carboxamido)cyclopropyl)benzoic acid on the heterotopic bone formation, […].
The free acid form has been assayed in the rat CIA model as already described for its sodium salt (Form A). […]

O=C([O-])c1ccc(C2(NC(=O)[C@H]3CC4(CCN3Cc3ccc(C(F)(F)F)cc3)CC4)CC2)cc1.[Na+] [Form A, sodium (R)-4-(1-(6-(4-(trifluoromethyl)benzyl)-6-azaspiro[2.5]octane-5-carboxamido)cyclopropyl)benzoate]
pathological bone formation (histology) [1]: completely abrogated in almost all animals | osteophytes at calcaneus and knee (micro-CT) ([2]; 10 and 30 mg/kg, 14 days of treatment, FIG. 8): the osteophytes disappeared at both site | optimal dose (maximal activity) against osteophyte formation ([2]; micro-CT, maintained at 30 mg/kg): 10 mg/kg | activity against heterotopic ossification in combination with methotrexate ([3]; 1 mg/kg combined with methotrexate 0.5 mg/kg every other day, FIG. 5): not hindered by the combination with this drug | activity against heterotopic ossification compared with methotrexate ([3]; 1 mg/kg vs methotrexate 0.5 mg/kg every other day, FIG. 5): higher than the comparative compound | activity on heterotopic bone formation (osteogenesis) compared with Methylsulfonylmethane (MSM) ([3]; 10 mg/kg once a day vs MSM 600 mg/kg, FIG. 4): greatly superior | control of the inflammatory response (edema; histological scores for synovial hyperplasia) ([3]; 15 mg/kg each, FIG. 6b): equally effective | activity in preventing pathological heterotopic ossification compared with rofecoxib ([3]; 15 mg/kg, identical dose of rofecoxib, FIG. 6a): surprisingly superior | histological scores for heterotopic bone formation (osteogenesis) ([3]; 1, 3 and 10 mg/kg once a day for 14 days, FIG. 3): capable to counteract the heterotopic bone formation; also recorded: able to counteract bony spur formation in a dose-dependent fashion | lowest effective dose against heterotopic ossification ([3]; FIG. 5): 1 mg/kg | dose of maximal activity against heterotopic bone formation ([3]; once a day for 14 days, FIG. 3): 10 mg/kg
